Ends that are not written are not given here.

One assay relates to Escherichia coli. The format is cell-based. The procedure: (§1) The antimicrobial activity of the peptides was tested against gram-positive Staphylococcus aureus and gram-negative Escherichia coli by a broth microdilution method, as described previously. Briefly, a colony of bacteria was incubated in culture medium (10 mL) and incubated at 37 °C for 14–18 h. After an aliquot (50 μL) of this culture was transferred to fresh culture medium (10 mL), each bacterial strain was grown to reach the mid-logarithmic phase. A total of 100 μL of bacteria (2 × 10^6 CFU/mL) were added to 96-well microtiter plates in the presence of serial dilutions of peptides. […] Measurements were repeated at least three times in triplicate.

For a further assay, the system named is Staphylococcus aureus. It is filed as cell-based. The procedure: as §1

Consider RIIDLLWRVRRAQKAKFVTVWVR [PMAP-PA], for which the “MIC E. coli” value with Escherichia coli is 8 to 16 µM. In addition, in the assay on Staphylococcus aureus, the “MIC S. aureus” value lay within 8 to 16 µM.

As for RIIDLLWRVRRGQKGKFVTVWVR [PMAP-PG], the “MIC E. coli” value against Escherichia coli was in the range of 8 to 16 µM.

Take RIIDLLWRVRRPQKPKFVTVWVR [PMAP-23]: in the assay on Escherichia coli, the “MIC E. coli” value lay in the range of 2 to 4 µM. Moreover, in the assay on Staphylococcus aureus, the “MIC S. aureus” value fell in the range of 2 to 4 µM.

The record behind these values is publication PMC8467763, “The Central PXXP Motif Is Crucial for PMAP-23 Translocation across the Lipid Bilayer” (International Journal of Molecular Sciences, 2021).
